According to US20040022842A1, “Liposome preparations containing oxaliplatin” (Mebiopharm Co., Ltd., priority 2002, published 2004):

System: Colon 26 cells
Assay: Cytotoxicity of oxaliplatin (L-OHP) liposomes against tumor cells, WST-1 assay (Example 7), Colon 26
Assay type: cell-based
Details: Colon 26 and AsPC-1 cells; comparison of L-OHP solution and liposome preparations
Protocol: Colon 26 cells and AsPC-1 cells were inoculated on a 96-well plate at 5×10^3 cells per well and pre-incubated with 5% CO2 overnight.
The cells were incubated at 37° C. under 5% CO2 for 4 hours. The test solutions were removed, and the incubation was continued for an additional 2 days, at which time the number of living cells was counted. Cell viability was determined according to the WST-1 assay.
According to the WST-1 assay, the assay solution contained 5 mmol/L WST-1 reagent (10 μL); 20 mmol/L HEPES; 1-methoxy-PMS at 0.2 mmol/L, at pH 7.4. This solution was added to each well, mixed thoroughly, and incubated in a CO2 incubator for 2 hours to allow for color development. The absorbance was then measured on a plate reader at 400-450 nm, with a reference wavelength of >600 nm.

SMILES: O=C1[O][Pt]2([NH]C3CCCCC3[NH]2)[O]C1=O [L-OHP solution, Oxaliplatin]
- relative cytotoxicity in words: showed the highest toxicity
